These molecules were tested against T1, recombinant human CL receptor/RAMP1 (Homo sapiens, UniProt O60894+Q16602) (assay: Recombinant receptor binding assay (125I-hCGRP displacement, membranes of HEK 293 cells)). Settings: 10 pM 125I-hCGRP, 3 h at room temperature.
T1 construct: expressed in transfected cells; membranes
Method: RECOMBINANT RECEPTOR: Human CL receptor (Genbank accession number L76380) was subcloned into the expression vector pIREShyg2 (BD Biosciences Clontech) as a 5′NheI and 3′ PmeI fragment. Human RAMP1 (Genbank accession number A3001014) was subcloned into the expression vector pIRESpuro2 (BD Biosciences Clontech) as a 5′NheI and 3′NotI fragment. HEK 293 cells (human embryonic kidney cells; ATCC #CRL-1573) were cultured in DMEM with 4.5 g/L glucose, 1 mM sodium pyruvate and 2 mM glutamine supplemented with 10% fetal bovine serum (FBS), 100 units/mL penicillin and 100 μg/mL streptomycin, and maintained at 37° C. and 95% humidity. Cells were subcultured by treatment with 0.25% trypsin with 0.1% EDTA in HBSS. Stable cell line generation was accomplished by co-transfecting 10 μg of DNA with 30 μg Lipofectamine 2000 (Invitrogen) in 75 cm^2 flasks. CL receptor and RAMP1 expression constructs were co-transfected in equal amounts. Twenty-four hours after transfection the cells were diluted and selective medium (growth medium+300 μg/mL hygromycin and 1 μg/mL puromycin) was added the following day. A clonal cell line was generated by single cell deposition utilizing a FACS Vantage SE (Becton Dickinson). Growth medium was adjusted to 150 μg/mL hygromycin and 0.5 μg/mL puromycin for cell propagation.
RECOMBINANT RECEPTOR BINDING ASSAY: Cells expressing recombinant human CL receptor/RAMP1 were washed with PBS and harvested in harvest buffer containing 50 mM HEPES, 1 mM EDTA and Complete™ protease inhibitors (Roche). The cell suspension was disrupted with a laboratory homogenizer and centrifuged at 48,000 g to isolate membranes. The pellets were resuspended in harvest buffer plus 250 mM sucrose and stored at −70° C. For binding assays, 20 μg of membranes were incubated in 1 mL binding buffer (10 mM HEPES, pH 7.4, 5 mM MgCl2, and 0.2% BSA) for 3 h at room temperature containing 10 pM ^125I-hCGRP (GE Healthcare) and antagonist. The assay was terminated by filtration through 96-well GFB glass fiber filter plates (PerkinElmer) that had been blocked with 0.05% polyethyleneimine. The filters were washed 3 times with ice-cold assay buffer (10 mM HEPES, pH 7.4, and 5 mM MgCl2). Scintillation fluid was added and the plates were counted on a Topcount (Packard). Non-specific binding was determined and the data analysis was carried out with the apparent dissociation constant (Ki) determined by using a non-linear least squares fitting the bound CPM data to the equation below:
[formula] Where Y is observed CPM bound, Ymax is total bound counts, Ymin is non specific bound counts, (Ymax−Ymin) is specific bound counts, % Imax is the maximum percent inhibition, % I min is the minimum percent inhibition, radiolabel is the probe, and the Kd is the apparent dissociation constant for the radioligand for the receptor as determined by hot saturation experiments.

T1 sequence (Q16602 23-461): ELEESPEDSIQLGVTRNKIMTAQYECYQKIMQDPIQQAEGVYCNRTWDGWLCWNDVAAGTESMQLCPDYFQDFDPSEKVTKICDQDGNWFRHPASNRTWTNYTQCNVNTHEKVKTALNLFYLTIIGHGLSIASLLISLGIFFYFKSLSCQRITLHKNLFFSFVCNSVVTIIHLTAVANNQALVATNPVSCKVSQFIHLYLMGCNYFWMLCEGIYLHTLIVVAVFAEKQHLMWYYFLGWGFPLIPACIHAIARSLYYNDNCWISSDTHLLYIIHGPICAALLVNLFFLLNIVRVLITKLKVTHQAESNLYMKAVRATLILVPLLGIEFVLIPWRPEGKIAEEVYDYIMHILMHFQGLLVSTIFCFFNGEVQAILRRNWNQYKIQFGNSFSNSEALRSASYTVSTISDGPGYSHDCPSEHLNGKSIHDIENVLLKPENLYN
T1 sequence (O60894 27-148): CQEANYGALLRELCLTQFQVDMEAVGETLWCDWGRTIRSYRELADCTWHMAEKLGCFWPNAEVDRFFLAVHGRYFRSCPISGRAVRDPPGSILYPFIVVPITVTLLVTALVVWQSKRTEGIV

| Structure (SMILES) | Ki [nM] |
| --- | --- |
| O=C(N[C@H]1C[C@@H](c2cccc(F)c2F)Cn2c(CC(F)(F)F)nnc21)c1cnc2c(c1)C[C@@]1(C2)C(=O)Nc2ncccc21 [Example 1.24, (6S)—N-[(6S,8S)-6-(2,3-Difluorophenyl)-3-(2,2,2-trifluoroethyl)-5,6,7,8-tetrahydro[1,2,4]triazolo[4,3-a]pyridin-8-yl]-2′-oxo-1′,2′,5,7-tetrahydrospiro[cyclopenta[b]pyridine-6,3′-pyrrolo[2,3-b]pyridine]-3-carboxamide] | 0.19 |
| O=C(N[C@H]1C[C@@H](c2cccc(F)c2F)Cn2c(CC(F)(F)F)cnc21)c1cnc2c(c1)C[C@@]1(C2)C(=O)Nc2ncccc21 [Example 1.2, (6S)—N-[(6S,8S)-6-(2,3-Difluorophenyl)-3-(2,2,2-trifluoroethyl)-5,6,7,8-tetrahydroimidazo[1,2-a]pyridin-8-yl]-2′-oxo-1′,2′,5,7-tetrahydrospiro[cyclopenta[b]pyridine-6,3′-pyrrolo[2,3-b]pyridine]-3-carboxamide] | 0.05 |
| C[C@@H]1[C@H](c2ccccc2)C[C@H](NC(=O)c2cnc3c(c2)C[C@@]2(C3)C(=O)Nc3ncccc32)c2ncc(C(C)(C)O)n21 [Example 1.26, (6S)—N-[(5R,6S,8S)-3-(2-Hydroxypropan-2-yl)-5-methyl-6-phenyl-5,6,7,8-tetrahydroimidazo[1,2-a]pyridin-8-yl]-2′-oxo-1′,2′,5,7-tetrahydrospiro[cyclopenta[b]pyridine-6,3′-pyrrolo[2,3-b]pyridine]-3-carboxamide] | 0.14 |
| C[C@@H]1[C@H](c2ccccc2)C[C@H](NC(=O)c2cnc3c(c2)C[C@@]2(C3)C(=O)Nc3ncncc32)c2ncc(C(C)(C)O)n21 [Example 2.1, (6S)—N-[(5R,6S,8S)-3-(2-Hydroxypropan-2-yl)-5-methyl-6-phenyl-5,6,7,8-tetrahydroimidazo[1,2-a]pyridin-8-yl]-6′-oxo-5,6′,7,7′-tetrahydrospiro[cyclopenta[b]pyridine-6,5′-pyrrolo[2,3-d]pyrimidine]-3-carboxamide] | 0.56 |

The remaining molecules from weak to strong by Ki, led by results:

| Ki [nM] | Structure (SMILES) |
| --- | --- |
| 0.36 | C[C@@H]1[C@H](c2ccccc2)C[C@H](NC(=O)c2cnc3c(c2)C[C@@]2(C3)C(=O)Nc3ncccc32)c2nnc(C3(C(F)(F)F)CC3)n21 [Example 1.27, (6S)—N-{(5R,6S,8S)-5-Methyl-6-phenyl-3-[1-(trifluoromethyl)cyclopropyl]-5,6,7,8-tetrahydro[1,2,4]triazolo[4,3-a]pyridin-8-yl}-2′-oxo-1′,2′,5,7-tetrahydrospiro[cyclopenta[b]pyridine-6,3′-pyrrolo[2,3-b]pyridine]-3-carboxamide] |
| 0.06 | C[C@@H]1[C@H](c2ccccc2)C[C@H](NC(=O)c2cnc3c(c2)C[C@@]2(C3)C(=O)Nc3ncccc32)c2ncc(CC(F)(F)F)n21 [Example 1.25] |
| 0.02 | COC(C)(C)c1cnc2n1C[C@H](c1cccc(F)c1F)C[C@@H]2NC(=O)c1cnc2c(c1)C[C@@]1(C2)C(=O)Nc2ncccc21 [Example 1.11, (6S)—N-[(6S,8S)-6-(2,3-Difluorophenyl)-3-(2-methoxypropan-2-yl)-5,6,7,8-tetrahydroimidazo[1,2-a]pyridin-8-yl]-2′-oxo-1′,2′,5,7-tetrahydrospiro[cyclopenta[b]pyridine-6,3′-pyrrolo[2,3-b]pyridine]-3-carboxamide] |

— patent US9067941B2, “Fused heterocyclic azaindane carboxamide CGRP receptor antagonists” (Merck Sharp & Dohme Corp., priority 2010, dated 2015)
